Assay results: patent US9073975B2, “Cyclic peptides, their preparation and their use as inhibitors of the platelet adhesion” (SANOFI, priority 2010, dated 2015)
Starred links: 1 amine or outer side, 2 acyl side, 3 side chain; linkers in the order of their positions; H or OH if unused. Positions of bridges follow the written chain, without caps; N, C: chain ends. Non-standard residues stand in square brackets, D forms with d. Residues, ends and D or L forms follow the SMILES beside them. ξ: configuration not given here. X1 = CSCC[C@H](NN[C@@H](CCCNC(=N)N)C(=O)C(=O)[C@H](CCC(=O)O)N[*:2])C(=O)[*:1]; NHCH2(1,3-C6H4)CH2CO = O=C(Cc1cccc(CN[*:1])c1)[*:2]; X3 = O=C(Cc1ccc(CN[*:1])cc1)[*:2]; Cha = N[C@@H](CC1CCCCC1)C(=O)O; Chg = N[C@H](C(=O)O)C1CCCCC1; Nle = CCCC[C@H](N)C(=O)O; Nva = CCC[C@H](N)C(=O)O; Aoc = NCCCCCCCC(=O)O; Ahp = NCCCCCCC(=O)O; Ahx = NCCCCCC(=O)O; ξA = CC(N)C(=O)O

Target: T1, recombinant human vWF-A1 domain (Homo sapiens, UniProt P07359)
T1 construct: whole blood drawn from voluntary donors; made in house; host or cells: E. coli (vWF-A1); washed platelets from human donor blood (GPIb, endogenous)
Assay: Static human platelet adhesion to recombinant human vWF-A1 domain
Type: cell-based
Details: not given
Description: The activity of compounds of the formula I can be shown by procedures known in the art, for example by determining their inhibition of the binding of platelets to vWF A1 domain in an appropriate assay. To this end, assay plates can be coated with vWF-A1 domain. […] Then fluorescence-labeled thrombocytes are added and incubated for 90 minutes. In a complex washing procedure all non-bound thrombocytes are removed and the plates are measured, for example in a laser-based reader Acumen Explorer or a bulk reader like Spectramax. […] To assess the effect of compounds on the interaction of the GPIb complex on platelets with vWF, an assay system was used measuring binding of human platelets to recombinant human vWF-A1 domain under static conditions in the presence and absence of the compounds. […] Platelet rich plasma was carefully removed, transferred to a fresh container and spun down for 15 min at 120 g. Platelet rich plasma was carefully transferred again to fresh containers, PGE1 (0.5 μg/ml, Sigma) was added and the suspension was allowed to rest for 5 min. This was followed by another centrifugation step for 15 min at 360 g. The supernatant was discarded and the cell pellets were carefully resuspended in tyrode buffer (NaCl, 137 mM (Sigma S-3014); KCl, 2.7 mM (Sigma P-9541); NaHCO3,12 mM ([…] 31437); NaH2PO4×2H2O, 0.36 mM (Merck 6345); […] After 5 min of resting the suspension was spun down for 15 min at 300 g. The supernatant was discarded and the pellets were carefully resuspended in TBS buffer (Tris-HCl, 50 mM (Fluka 93371); NaCl, 120 mM (Sigma S-3014); KCl, 2.7 mM (Sigma P-9541); CaCl2, 0.05 mM (Sigma C-3306); MgCl2×6 H2O, 2 mM (Sigma M-2670); […] The platelet count was adjusted to 2×10^5 cells/μl, and the suspensions from individual donors were pooled at this stage. The platelets were allowed to rest for 30 min at room temperature before calcein AM (2.5 μM per 2×10^5 cells/μl (Molecular Probes C-3099)) was added. This was followed by 15 min incubation in the dark. Cells were diluted to 5×10^4 cells/μl and ReoPro (3 μg/ml (Centocor B. V., Leiden, N L)) was added, followed by a 10 min incubation period in the dark before adding the platelets to the assay plates. 96 well plates (Greiner hb, black, clear bottom, F, 655097) were coated with human recombinant vWF-A1 domain (1.5 μg/well, AA 475-706, expressed in E. coli) in Tris buffer (pH 7.4; Tris-HCl, 25 mM; NaCl, 150 mM) and incubated for 1 h at room temperature. After washing the wells 3× with TBS, blocking buffer (TBS with 5% BSA) was added followed by an incubation for 1 h. The wells were washed again 3× with TBS before 200 μl TBS were added to each well, preventing them from drying out. TBS was flicked out and serial dilutions of the test compound were added. The washed and calcein AM labeled thrombocytes were added to the wells (2.5×10^6 cells/well). Following an adhesion period of 1.5 h in the dark the wells were washed 3× with TBS. Measurement of fluorescence per well was performed in a SpectraMax M5 reader (Molecular Devices). From the raw data % inhibition and IC50 values were calculated.

T1 sequence (P07359 17-652): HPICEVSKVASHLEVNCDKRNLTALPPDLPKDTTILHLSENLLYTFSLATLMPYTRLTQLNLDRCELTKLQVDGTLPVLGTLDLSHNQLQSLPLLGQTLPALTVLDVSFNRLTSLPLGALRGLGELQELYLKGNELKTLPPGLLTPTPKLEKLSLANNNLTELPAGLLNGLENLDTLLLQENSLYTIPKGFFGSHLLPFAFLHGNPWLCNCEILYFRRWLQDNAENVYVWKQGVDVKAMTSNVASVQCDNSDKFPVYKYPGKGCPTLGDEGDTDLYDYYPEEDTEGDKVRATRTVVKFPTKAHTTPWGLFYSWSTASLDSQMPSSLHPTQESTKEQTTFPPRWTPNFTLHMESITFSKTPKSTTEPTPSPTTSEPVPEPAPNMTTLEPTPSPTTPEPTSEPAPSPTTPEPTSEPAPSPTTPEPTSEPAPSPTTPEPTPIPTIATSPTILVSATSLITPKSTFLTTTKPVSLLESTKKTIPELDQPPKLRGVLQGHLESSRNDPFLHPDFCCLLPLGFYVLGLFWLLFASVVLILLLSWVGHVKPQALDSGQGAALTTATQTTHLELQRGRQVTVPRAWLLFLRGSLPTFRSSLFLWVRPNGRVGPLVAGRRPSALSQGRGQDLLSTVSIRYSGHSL
T1 sequence (P13224 26-206 partner): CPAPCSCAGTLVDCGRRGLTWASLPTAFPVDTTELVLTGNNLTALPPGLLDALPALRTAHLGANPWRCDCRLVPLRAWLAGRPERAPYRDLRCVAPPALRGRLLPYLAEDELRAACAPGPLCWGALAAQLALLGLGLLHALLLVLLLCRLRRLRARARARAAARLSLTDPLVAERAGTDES
T1 sequence (P14770 17-177 partner): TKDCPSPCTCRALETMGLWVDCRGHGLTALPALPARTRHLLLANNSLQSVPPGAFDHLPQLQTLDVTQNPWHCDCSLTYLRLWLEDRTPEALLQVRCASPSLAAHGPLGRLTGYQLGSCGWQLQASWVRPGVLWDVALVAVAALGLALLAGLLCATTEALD

Row | SMILES | IC50 [nM]
1 | CSCC[C@@H]1NC(=O)[C@H](CCCNC(=N)N)NC(=O)[C@H](CCC(=O)O)NC(=O)[C@H]([C@@H](C)O)NC(=O)Cc2cccc(c2)CNC(=O)[C@H](CC(C)C)NC(=O)[C@H](CC(N)=O)NC(=O)[C@H](Cc2c[nH]cn2)NC(=O)[C@H](CC(C)C)NC(=O)[C@H](C)NC1=O [Example 2, Cyclo[Leu-His-Asn-Leu-NH-X4-X3-X2-X1-CO-Thr-Glu-Arg-Met-Ala]] (cyclo(ALHNL[NHCH2(1,3-C6H4)CH2CO]TERM)) | < 1000
2 | CSCC[C@@H]1NC(=O)[C@H](CCCNC(=N)N)NC(=O)[C@H](CCC(=O)O)NC(=O)[C@H]([C@@H](C)O)NC(=O)Cc2ccc(cc2)CNC(=O)[C@H](CC(C)C)NC(=O)[C@H](CC(N)=O)NC(=O)[C@H](Cc2c[nH]cn2)NC(=O)[C@H](CC(C)C)NC(=O)[C@H](C)NC1=O [Example 3, Cyclo[Leu-His-Asn-Leu-NH-X4-X3-X2-X1-CO-Thr-Glu-Arg-Met-Ala]] (cyclo(ALHNL[X3]TERM)) | 1000 to 10000

Same assay, conditions: washed calcein AM labeled human platelets, static conditions, 1.5 h adhesion; read-out: Activity (IC50 for inhibition of the binding of platelets to vWF A1 domain)

Row | SMILES | IC50 [nM]
3 | CSCC[C@@H]1NN[C@@H](CCCNC(=N)N)C(=O)C(=O)[C@H](CCC(=O)O)NC(=O)[C@H]([C@@H](C)O)NC(=O)CCCCCCNC(=O)[C@H](CC(C)C)NC(=O)[C@H](CC(N)=O)NC(=O)[C@H](Cc2cnc[nH]2)NC(=O)[C@H](CC(C)C)NC(=O)C(C)NC1=O (stereo partly drawn) [Example 1, Cyclo[Leu-His-Asn-Leu-NH—(CH2)6—CO-Thr-Glu-Arg-Met-Ala]] ([ξA]LHNL[Ahp]T; linker N-C via X1) | < 1000
4 | CSCC[C@@H]1NC(=O)[C@H](CCCNC(=N)N)NC(=O)[C@H](CCC(=O)O)NC(=O)[C@H]([C@@H](C)O)NC(=O)CCCCCNC(=O)[C@H](CC(C)C)NC(=O)[C@H](CC(N)=O)NC(=O)[C@H](Cc2c[nH]cn2)NC(=O)[C@H](CC(C)C)NC(=O)[C@H](C)NC1=O [Example 11, Cyclo[Leu-His-Asn-Leu-NH—(CH2)5—CO-Thr-Glu-Arg-Met-Ala]] (cyclo(ALHNL[Ahx]TERM)) | 1000 to 10000
5 | CCCC[C@@H]1NC(=O)[C@H](C)NC(=O)[C@H](CCSC)NC(=O)[C@H](CCCNC(=N)N)NC(=O)[C@H](CCC(=O)O)NC(=O)[C@H]([C@@H](C)O)NC(=O)CCCCCCNC(=O)[C@H](CC(C)C)NC(=O)[C@H](CC(N)=O)NC(=O)[C@H](Cc2c[nH]cn2)NC1=O [Example 13, Cyclo[Nle-His-Asn-Leu-NH—(CH2)6—CO-Thr-Glu-Arg-Met-Ala]] (cyclo(A[Nle]HNL[Ahp]TERM)) | 1000 to 10000
6 | CC[C@H](C)[C@@H]1NC(=O)[C@H](C)NC(=O)[C@H](CCSC)NC(=O)[C@H](CCCNC(=N)N)NC(=O)[C@H](CCC(=O)O)NC(=O)[C@H]([C@@H](C)O)NC(=O)CCCCCCNC(=O)[C@H](CC(C)C)NC(=O)[C@H](CC(N)=O)NC(=O)[C@H](Cc2c[nH]cn2)NC1=O [Example 14, Cyclo[Ile-His-Asn-Leu-NH—(CH2)6—CO-Thr-Glu-Arg-Met-Ala]] (cyclo(AIHNL[Ahp]TERM)) | 1000 to 10000
7 | CC[C@H](C)[C@@H]1NC(=O)[C@H](CCCNC(=N)N)NC(=O)[C@H](CCC(=O)O)NC(=O)[C@H]([C@@H](C)O)NC(=O)CCCCCCNC(=O)[C@H](CC(C)C)NC(=O)[C@H](CC(N)=O)NC(=O)[C@H](Cc2c[nH]cn2)NC(=O)[C@H](CC(C)C)NC(=O)[C@H](C)NC1=O [Example 18, Cyclo[Leu-His-Asn-Leu-NH—(CH2)6—CO-Thr-Glu-Arg-Ile-Ala]] (cyclo(ALHNL[Ahp]TERI)) | 1000 to 10000
8 | CSCC[C@@H]1NC(=O)[C@H](CCCNC(=N)N)NC(=O)[C@H](CCC(=O)O)NC(=O)[C@H]([C@@H](C)O)NC(=O)CCCCCCNC(=O)[C@H](CC(C)C)NC(=O)[C@H](CC(N)=O)NC(=O)[C@H](Cc2c[nH]cn2)NC(=O)[C@H](C2CCCCC2)NC(=O)[C@H](C)NC1=O [Example 20, Cyclo[Chg-His-Asn-Leu-NH—(CH2)6—CO-Thr-Glu-Arg-Met-Ala]] (cyclo(A[Chg]HNL[Ahp]TERM)) | 1000 to 10000
9 | CSCC[C@@H]1NC(=O)[C@H](CCCNC(=N)N)NC(=O)[C@H](CCC(=O)O)NC(=O)[C@H](Cc2c[nH]cn2)NC(=O)CCCCCCNC(=O)[C@H](CC(C)C)NC(=O)[C@H](CC(N)=O)NC(=O)[C@H](Cc2c[nH]cn2)NC(=O)[C@H](CC(C)C)NC(=O)[C@H](C)NC1=O [Example 21, Cyclo[Leu-His-Asn-Leu-NH—(CH2)6—CO-His-Glu-Arg-Met-Ala]] (cyclo(ALHNL[Ahp]HERM)) | 1000 to 10000

Other lines, results leading:

Row | IC50 [nM] | SMILES
10 | 1000 to 10000 | CSCC[C@@H]1NC(=O)[C@H](CCCNC(=N)N)NC(=O)[C@H](CCC(=O)O)NC(=O)[C@H]([C@@H](C)O)NC(=O)[C@@H](NC(C)=O)CCCCNC(=O)[C@H](CC(C)C)NC(=O)[C@H](CC(N)=O)NC(=O)[C@H](Cc2c[nH]cn2)NC(=O)[C@H](CC(C)C)NC(=O)[C@H](C)NC1=O [Example 5, Cyclo[Leu-His-Asn-Leu-NH-X4-X3-X2-X1-CO-Thr-Glu-Arg-Met-Ala]] (Ac-KTERMALHNL; lactam 1-C)
11 | < 1000 | CSCC[C@@H]1NC(=O)[C@H](CCCNC(=N)N)NC(=O)[C@H](CCC(=O)O)NC(=O)[C@H]([C@@H](C)O)NC(=O)CCCCCCCNC(=O)[C@H](CC(C)C)NC(=O)[C@H](CC(N)=O)NC(=O)[C@H](Cc2c[nH]cn2)NC(=O)[C@H](CC(C)C)NC(=O)[C@H](C)NC1=O [Example 6, Cyclo[Leu-His-Asn-Leu-NH—(CH2)7—CO-Thr-Glu-Arg-Met-Ala]] (cyclo(ALHNL[Aoc]TERM))
12 | 1000 to 10000 | CSCC[C@@H]1NC(=O)[C@H](CCCCN)NC(=O)[C@H](CCC(=O)O)NC(=O)[C@H]([C@@H](C)O)NC(=O)CCCCCCNC(=O)[C@H](CC(C)C)NC(=O)[C@H](CC(N)=O)NC(=O)[C@H](Cc2c[nH]cn2)NC(=O)[C@H](CC(C)C)NC(=O)[C@H](C)NC1=O [Example 7, Cyclo[Leu-His-Asn-Leu-NH—(CH2)6—CO-Thr-Glu-Lys-Met-Ala]] (cyclo(ALHNL[Ahp]TEKM))
13 | 1000 to 10000 | CSCC[C@@H]1NC(=O)[C@H](CCCNC(=N)N)NC(=O)[C@H](CCC(=O)O)NC(=O)[C@H](CC(=O)O)NC(=O)CCCCCCNC(=O)[C@H](CC(C)C)NC(=O)[C@H](CC(N)=O)NC(=O)[C@H](Cc2c[nH]cn2)NC(=O)[C@H](CC(C)C)NC(=O)[C@H](C)NC1=O [Example 10, Cyclo[Leu-His-Asn-Leu-NH—(CH2)6—CO-Asp-Glu-Arg-Met-Ala]] (cyclo(ALHNL[Ahp]DERM))
14 | < 1000 | CSCC[C@@H]1NC(=O)[C@H](CCCNC(=N)N)NC(=O)[C@H](CCC(=O)O)NC(=O)[C@H]([C@@H](C)O)NC(=O)CCCCCCNC(=O)[C@H](CC(C)C)NC(=O)[C@H](CC(N)=O)NC(=O)[C@H](Cc2c[nH]cn2)NC(=O)[C@H](CC2CCCCC2)NC(=O)[C@H](C)NC1=O [Example 16, Cyclo[Cha-His-Asn-Leu-NH—(CH2)6—CO-Thr-Glu-Arg-Met-Ala]] (cyclo([Cha]HNL[Ahp]TERMA))
15 | < 1000 | CC(C)C[C@@H]1NC(=O)[C@H](C)NC(=O)[C@H](CC2CCCCC2)NC(=O)[C@H](CCCNC(=N)N)NC(=O)[C@H](CCC(=O)O)NC(=O)[C@H]([C@@H](C)O)NC(=O)CCCCCCNC(=O)[C@H](CC(C)C)NC(=O)[C@H](CC(N)=O)NC(=O)[C@H](Cc2c[nH]cn2)NC1=O [Example 17, Cyclo[Leu-His-Asn-Leu-NH—(CH2)6—CO-Thr-Glu-Arg-Cha-Ala]] (cyclo(ALHNL[Ahp]TER[Cha]))
16 | < 1000 | CCC[C@@H]1NC(=O)[C@H](C)NC(=O)[C@H](CCSC)NC(=O)[C@H](CCCNC(=N)N)NC(=O)[C@H](CCC(=O)O)NC(=O)[C@H]([C@@H](C)O)NC(=O)CCCCCCNC(=O)[C@H](CC(C)C)NC(=O)[C@H](CC(N)=O)NC(=O)[C@H](Cc2c[nH]cn2)NC1=O [Example 19, Cyclo[Nva-His-Asn-Leu-NH—(CH2)6—CO-Thr-Glu-Arg-Met-Ala]] (cyclo(A[Nva]HNL[Ahp]TERM))
17 | < 1000 | CSCC[C@@H]1NC(=O)[C@H](CCCNC(=N)N)NC(=O)[C@H](CCC(=O)O)NC(=O)[C@H](CC(N)=O)NC(=O)CCCCCCNC(=O)[C@H](CC(C)C)NC(=O)[C@H](CC(N)=O)NC(=O)[C@H](Cc2c[nH]cn2)NC(=O)[C@H](CC(C)C)NC(=O)[C@H](C)NC1=O [Example 22, Cyclo[Leu-His-Asn-Leu-NH—(CH2)6—CO-Asn-Glu-Arg-Met-Ala]] (cyclo(ALHNL[Ahp]NERM))
